Drawing on PubChem BioAssay AID256 (DTP/NCI, 2004), this text covers T/C for 19 compounds.

Where “and” joins values, the source holds several entries; their conditions need not be identical. Identical values can stand only once. Inconclusive results and toxic doses are left out.

In the experiment the test system is CD2F1 mice, L1210 leukemia ip, survival T/C. Nature of the experiment: NCI In Vivo Anticancer Drug Screen. Data for tumor model L1210 Leukemia (intraperitoneal) in CD2F1 (CDF1) mice. As to conditions: higher = longer survival. The method in brief: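 Ratio T/C, where T is the treated-group value and C the vehicle-dosed control value, from mice implanted with a transplantable tumor.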

[1] abbreviates: endpoint: mean survival time, dose: 100.0 mg/kg/injection, schedule: Q04DX003 (ip), vehicle: saline with Tween-80.
Setting [2] is: endpoint: mean survival time, dose: 200.0 mg/kg/injection, schedule: Q04DX003 (ip), vehicle: saline with Tween-80.
[3] abbreviates: endpoint: mean survival time, dose: 400.0 mg/kg/injection, schedule: Q04DX003 (ip), vehicle: saline with Tween-80.
[4] abbreviates: endpoint: mean survival time, dose: 100.0 mg/kg/injection, schedule: Q01DX009 (ip), vehicle: other.
Where [5] appears, read: endpoint: mean survival time, dose: 100.0 mg/kg/injection, schedule: Q04DX003 (ip), vehicle: saline.
Setting [6] is: endpoint: mean survival time, dose: 75.0 mg/kg/injection, schedule: Q01DX001 (ip), vehicle: saline.

In the case of `O=C(Cl)OC1CS(=O)(=O)CC1O` (stereo not drawn), the T/C is, setting by setting: under setting [1], 98 % of control; under setting [2], 98 % of control; under setting [3], 101 % of control.

Turning to `O=C(Nc1cccc2ccccc12)c1ccccc1`, the T/C is 95 % of control (endpoint: mean survival time, dose: 100.0 mg/kg/injection, schedule: Q01DX001 (ip), vehicle: saline with Tween-80); 95 % of control (endpoint: mean survival time, dose: 200.0 mg/kg/injection, schedule: Q01DX001 (ip), vehicle: saline with Tween-80); 92 % of control (endpoint: mean survival time, dose: 400.0 mg/kg/injection, schedule: Q01DX001 (ip), vehicle: saline with Tween-80).

Take `CC[C@H](C)c1occ2c(O)c(C(=O)O)c(=O)cc-2c1C`: the T/C was 98 % of control (endpoint: mean survival time, dose: 100.0 mg/kg/injection, schedule: Q01DX001 (ip), vehicle: saline) and 101 % of control (endpoint: mean survival time, dose: 200.0 mg/kg/injection, schedule: Q01DX001 (ip), vehicle: saline).

Regarding `COc1cc(/C=C2/CCCCC2=O)ccc1O`, the T/C runs as follows: under setting [4], 104 % of control; (endpoint: mean survival time, dose: 200.0 mg/kg/injection, schedule: Q01DX009 (ip), vehicle: other) 98 % of control; (endpoint: mean survival time, dose: 400.0 mg/kg/injection, schedule: Q01DX009 (ip), vehicle: other) 98 % of control.

On to `C=CCOCC(O)CNCC(O)COCC=C` (stereo not drawn), for which, under setting [1], the T/C was 100 % of control.

`COc1ccc(OC)c(-c2cn(C3CC(O)C(CO)O3)c(=O)[nH]c2=O)c1` (stereo not drawn): the T/C by setting is: (endpoint: median survival time, dose: 12.5 mg/kg/injection, schedule: Q01DX005 (ip), vehicle: water) 100 % of control; (endpoint: median survival time, dose: 25.0 mg/kg/injection, schedule: Q01DX005 (ip), vehicle: water) 102 % of control; (endpoint: median survival time, dose: 50.0 mg/kg/injection, schedule: Q01DX005 (ip), vehicle: water) 97 % of control; (endpoint: median survival time, dose: 100.0 mg/kg/injection, schedule: Q01DX005 (ip), vehicle: water) 102 % of control; (endpoint: median survival time, dose: 200.0 mg/kg/injection, schedule: Q01DX005 (ip), vehicle: water) 98 % of control.

For the compound `CN(C)/C=N/N1C(=O)CSC1=S`, the T/C is 107 % of control (endpoint: mean survival time, dose: 25.0 mg/kg/injection, schedule: Q04DX003 (ip), vehicle: saline); 103 % of control (endpoint: mean survival time, dose: 50.0 mg/kg/injection, schedule: Q04DX003 (ip), vehicle: saline); 101 % of control and 103 % of control under setting [5].

Consider `COC1OC(COC(C)=O)C(OC(C)=O)C(OC(C)=O)[CH]1[Hg][O]C(C)=O` (stereo not drawn), for which the T/C is 106 % of control (endpoint: mean survival time, dose: 6.25 mg/kg/injection, schedule: Q01DX009 (ip), vehicle: saline); 108 % of control (endpoint: mean survival time, dose: 12.5 mg/kg/injection, schedule: Q01DX009 (ip), vehicle: saline); 97 % of control (endpoint: mean survival time, dose: 25.0 mg/kg/injection, schedule: Q01DX009 (ip), vehicle: saline).

For the compound `CN(C)CCCNCC#CCNCCCN(C)C`, the T/C (endpoint: mean survival time, dose: 50.0 mg/kg/injection, schedule: Q01DX009 (ip), vehicle: saline) was 100 % of control; the T/C (endpoint: mean survival time, dose: 100.0 mg/kg/injection, schedule: Q01DX009 (ip), vehicle: saline) was 98 % of control; the T/C under setting [5] is 101 % of control; the T/C (endpoint: mean survival time, dose: 200.0 mg/kg/injection, schedule: Q01DX009 (ip), vehicle: saline) is 96 % of control; the T/C (endpoint: mean survival time, dose: 200.0 mg/kg/injection, schedule: Q04DX003 (ip), vehicle: saline) is 95 % of control.

Take `O=C(O)CNS(=O)(=O)c1ccccc1`: the T/C by setting is: under setting [1], 98 % of control; under setting [2], 101 % of control; under setting [3], 93 % of control.

Take `NC(=O)N(CCCl)N=O`: the T/C was 292 % of control (endpoint: mean survival time, dose: 1.0 mg/kg/injection, schedule: Q01DX007 (ip), vehicle: saline); 273 % of control (endpoint: mean survival time, dose: 1.0 mg/kg/injection, schedule: Q01DX009 (ip), vehicle: saline); 187 % of control (endpoint: mean survival time, dose: 1.0 mg/kg/injection, schedule: Q03DX003 (ip), vehicle: saline); 188 % of control (endpoint: mean survival time, dose: 1.0 mg/kg/injection, schedule: Q04DX003 (ip), vehicle: saline); 242 % of control (endpoint: mean survival time, dose: 2.0 mg/kg/injection, schedule: Q01DX007 (ip), vehicle: saline); 220 % of control (endpoint: mean survival time, dose: 2.0 mg/kg/injection, schedule: Q01DX009 (ip), vehicle: saline). Also, the T/C is, setting by setting: (endpoint: mean survival time, dose: 2.0 mg/kg/injection, schedule: Q03DX003 (ip), vehicle: saline) 286 % of control; (endpoint: mean survival time, dose: 2.0 mg/kg/injection, schedule: Q04DX003 (ip), vehicle: saline) 284 % of control; (endpoint: mean survival time, dose: 4.0 mg/kg/injection, schedule: Q01DX007 (ip), vehicle: saline) 105 % of control; (endpoint: mean survival time, dose: 4.0 mg/kg/injection, schedule: Q01DX009 (ip), vehicle: saline) 101 % of control; (endpoint: mean survival time, dose: 4.0 mg/kg/injection, schedule: Q04DX003 (ip), vehicle: saline) 308 % of control.

As for `O=C(O)c1cc(F)c(F)c(F)c1F`, the T/C reads like this: (endpoint: mean survival time, dose: 12.5 mg/kg/injection, schedule: Q01DX009 (ip), vehicle: saline with Tween-80) 91 % of control; (endpoint: mean survival time, dose: 25.0 mg/kg/injection, schedule: Q01DX009 (ip), vehicle: saline with Tween-80) 97 % of control; (endpoint: mean survival time, dose: 25.0 mg/kg/injection, schedule: Q04DX003 (ip), vehicle: saline with Tween-80) 96 % of control; (endpoint: mean survival time, dose: 50.0 mg/kg/injection, schedule: Q01DX009 (ip), vehicle: saline with Tween-80) 103 % of control; (endpoint: mean survival time, dose: 50.0 mg/kg/injection, schedule: Q04DX003 (ip), vehicle: saline with Tween-80) 94 % of control.

In the case of `CN(C)c1ccc(N=Nc2ccc(C(=O)Cl)cc2)cc1`, the T/C by setting is: (endpoint: mean survival time, dose: 50.0 mg/kg/injection, schedule: Q01DX009 (ip), vehicle: Klucel (hydroxypropylcellulose) (HPC)) 98 % of control; (endpoint: mean survival time, dose: 100.0 mg/kg/injection, schedule: Q01DX009 (ip), vehicle: Klucel (hydroxypropylcellulose) (HPC)) 91 % of control; (endpoint: mean survival time, dose: 200.0 mg/kg/injection, schedule: Q01DX009 (ip), vehicle: Klucel (hydroxypropylcellulose) (HPC)) 94 % of control.

As to `CCCCCC#CC1OC12CCCCC2` (stereo not drawn), the T/C was 97 % of control (endpoint: mean survival time, dose: 12.5 mg/kg/injection, schedule: Q01DX009 (sc), vehicle: saline with Tween-80); 104 % of control (endpoint: mean survival time, dose: 25.0 mg/kg/injection, schedule: Q01DX009 (sc), vehicle: saline with Tween-80); 98 % of control (endpoint: mean survival time, dose: 50.0 mg/kg/injection, schedule: Q01DX009 (sc), vehicle: saline with Tween-80); 103 % of control (endpoint: mean survival time, dose: 100.0 mg/kg/injection, schedule: Q01DX009 (sc), vehicle: saline with Tween-80); 98 % of control (endpoint: mean survival time, dose: 200.0 mg/kg/injection, schedule: Q01DX009 (sc), vehicle: saline with Tween-80).

As for `CCCCCCCC/C=C\CCCCCCCC(=O)NCCN(CC)CC`, the T/C is, setting by setting: under setting [6], 101 % of control; (endpoint: mean survival time, dose: 150.0 mg/kg/injection, schedule: Q01DX001 (ip), vehicle: saline) 101 % of control.

As to `CCC(CC)C(O)CC(O)CC(C)C` (stereo not drawn), the T/C (endpoint: mean survival time, dose: 25.0 mg/kg/injection, schedule: Q01DX009 (ip), vehicle: other) is 97 % of control; the T/C (endpoint: mean survival time, dose: 50.0 mg/kg/injection, schedule: Q01DX009 (ip), vehicle: other) is 103 % of control; the T/C under setting [4] was 97 % of control; the T/C (endpoint: mean survival time, dose: 100.0 mg/kg/injection, schedule: Q04DX003 (ip), vehicle: other) is 86 % of control; the T/C (endpoint: mean survival time, dose: 400.0 mg/kg/injection, schedule: Q04DX003 (ip), vehicle: other) is 94 % of control.

In the case of `O=NN(CCCl)C(=O)NC1OC(CO)C(O)C(O)C1O` (stereo not drawn), the T/C reads like this: (endpoint: mean survival time, dose: 2.5 mg/kg/injection, schedule: Q01DX009 (ip), vehicle: saline) 215 % of control; (endpoint: mean survival time, dose: 5.0 mg/kg/injection, schedule: Q01DX009 (ip), vehicle: saline) 176 % of control; (endpoint: mean survival time, dose: 10.0 mg/kg/injection, schedule: Q04DX002 (ip), vehicle: saline) 243 % of control; (endpoint: mean survival time, dose: 20.0 mg/kg/injection, schedule: Q04DX002 (ip), vehicle: saline) 121 % of control; (endpoint: median survival time, dose: 1.8 mg/kg/injection, schedule: Q01DX009 (ip), vehicle: saline) 175 % of control; (endpoint: median survival time, dose: 3.0 mg/kg/injection, schedule: Q01DX009 (ip), vehicle: saline) 175 % of control. The T/C (endpoint: median survival time, dose: 13.89 mg/kg/injection, schedule: Q01DX009 (ip), vehicle: saline) was 96 % of control.

Consider `CC(C)OC(=O)C12Oc3ccc(-c4ccc5c(c4O)C(O)=C4C(=O)CC(C)C(O)C4(C(=O)OC(C)C)O5)c(O)c3C(O)=C1C(=O)CC(C)C2O` (stereo not drawn), for which the T/C is, setting by setting: (endpoint: mean survival time, dose: 1.25 mg/kg/injection, schedule: Q01DX009 (ip), vehicle: saline with Tween-80) 102 % of control; (endpoint: mean survival time, dose: 2.5 mg/kg/injection, schedule: Q01DX009 (ip), vehicle: saline with Tween-80) 95 % of control; (endpoint: mean survival time, dose: 5.0 mg/kg/injection, schedule: Q01DX009 (ip), vehicle: saline with Tween-80) 98 % of control.

For the compound `CCOc1cc(NCCCN)c2nc(OCc3ccccc3)ccc2c1`, the T/C under setting [6] was 96 % of control.
